Test results as given in patent US20250388542A1, “ANALOGUES OF PENTAMIDINE AND USES THEREFOR” (Auransa Inc., priority 2018, published 2025).

What was measured:
Format in all cases: cell-based
DU4475 = assay: CellTiter-Glo cytotoxicity, cancer cell line panel / breast cancer study; conditions: DU4475, Breast carcinoma
Experimental: (§1) The objective of this study is to investigate potential cell killing effect of Compounds 1-15 on 3 cancer cell lines. 50% inhibition concentration (IC50) was determined for these compounds in various cancer cell lines using CellTiter-Glo™ luminescent cell viability assay at different compound concentrations. Each cell line (e.g., NCI-H209; NCI-H69; and SW1271) was treated with Compounds 1-15 and culture medium contains 0.2% [v/v] DMSO vehicle control. All the cells were cultured in the media supplemented with 10-20% fetal bovine serum at 37° C., 5% CO2 and 95% humidity.
(§2) The objective of this study is to investigate the effect of Compound 1 on cytotoxicity against 61 different types of cancer cell lines. IC50 were values were obtained using CellTiter-Glo™ as described above. Each cell line shown in Table 3 was treated with Compound 1, a standard chemotherapy drug, cisplatin, as reference control and culture medium contains 0.2% [v/v] DMSO vehicle control. All cancer cell lines were cultured in media supplemented with 10-20% fetal bovine serum at 37° C., 5% CO2 and 95% humidity.
(§3) The objective of this study is to investigate the effect of Compound 1 on cell viability of various types of breast cancer. Four different breast cancer cell lines were employed in the study. Each cell line shown in Table 5 was treated with Compound 1 and standard of care (cisplatin) and culture medium contains 0.2% [v/v] DMSO vehicle control and IC50 values were obtained as described above. The raw data values from the CellTiter-Glo™ cell viability assay expressed in relative luminescence units were normalized to the vehicle for each individual plate, and any reduction in luminescence indicated a decrease in viability (%). The data was analyzed in GraphPad PRISM using a non-linear sigmoidal plot with variable slope (asymmetric four-point linear regression), and an IC50 value for each compound was generated. The experiment tested pentamidine, compound 1, and standard-of-care control Cisplatin in full growth media for 8 days. Cells were initially treated with the test compounds on Day 0, and the cells were then replenished with fresh compound dilutions on Day 3. Pentamidine, Compound 1, and cisplatin were tested at 9 concentration points; 100, 33.33, 11.11, 3.70, 1.23, 0.41, 0.14, 0.05, and 0.02 μM (final DMSO concentration=0.5%).

HCC1954 = assay: as above; conditions: HCC1954, Ductal breast carcinoma
Experimental: as §1, §2, §3

ZR-75-1 = assay: as above; conditions: ZR-75-1, Invasive ductal carcinoma
Experimental: as §1, §2, §3

Hep3B-luc = assay: CellTiter-Glo cell viability, liver cell lines, 8 days; conditions: full growth media
Experimental: (§4) The objective of this study is to investigate the effect of Compound 1 on cell viability of various types of liver cancer. Ten (10) different liver cancer cell lines were employed in the study. Each liver cell line shown in Table 4 was treated with Compound 1, pentamidine, as reference control, a standard of care (cisplatin) and culture medium contains 0.2% [v/v] DMSO vehicle control and IC50 values were obtained as described above. The raw data values from the CellTiter-Glo™ cell viability assay expressed in relative luminescence units were normalized to the vehicle for each individual plate, and any reduction in luminescence indicated a decrease in viability (%). The data was analyzed in GraphPad PRISM using a non-linear sigmoidal plot with variable slope (asymmetric four-point linear regression), and an IC50 value for each compound was generated. The experiment tested pentamidine, compound 1, and standard-of-care control Cisplatin in full growth media for 8 days. Cells were initially treated with the test compounds on Day 0, and the cells were then replenished with fresh compound dilutions on Day 3. Pentamidine, Compound 1, and cisplatin were tested at 9 concentration points; 100, 33.33, 11.11, 3.70, 1.23, 0.41, 0.14, 0.05, and 0.02 μM (final DMSO concentration=0.5%). In particular, the IC50 values of pentamidine and Compound 1 were 0.8 and 0.6 μM in Hep3B-luc, respectively.
The experiment tested pentamidine, Compound 1, and standard of care control, cisplatin, in full growth media for 8 days. Hep-3b cells were initially treated with the test compounds on Day 0, and the cells were then replenished with fresh compound dilutions on Day 3. […] The raw data values from the CellTiter-Glo™ cell viability assay expressed in relative luminescence units were normalized to the vehicle for each individual plate, and any reduction in luminescence indicated a decrease in viability (%). The data was analyzed in GraphPad PRISM using a non-linear sigmoidal plot with variable slope (asymmetric four-point linear regression), and an IC50 value for each compound was generated. […]

HCCLM3 = assay: as above; conditions: Homo sapiens, 192 h; HCCLM3, 8 days
Experimental: as §4

HEP3B2.7-1 = assay: as above; conditions: HEP3B2.7-1, Table 4
Experimental: as §4

HUH1 = assay: as above; conditions: Homo sapiens, HuH-1, 192 h; HUH1, 8 days
Experimental: as §4

HUH7 = assay: as above; conditions: Homo sapiens, Huh-7, 192 h; HUH7, 8 days
Experimental: as §4

Hep3B = assay: as above; conditions: Homo sapiens, 192 h
Experimental: as §4

HepG2 = assay: as above; conditions: Homo sapiens, 192 h; HepG2, 8 days
Experimental: as §4

MHCC97H = assay: as above; conditions: Homo sapiens, 192 h
Experimental: as §4

SK-HEP-1 = assay: as above; conditions: Homo sapiens
Experimental: as §4

For `N.N.[Cl][Pt][Cl]` [Cisplatin, cisplatin, reference compound], the IC50 (DU4475) was 600 nM, the IC50 (HCC1954) was 770 nM and the IC50 (ZR-75-1) was 1020 nM. For the same compound, the IC50 (Hep3B-luc) was 5100 nM.

Compound `N=C(N)c1ccc(OCCCCCOc2ccc(C(=N)N)cc2)cc1` [Pentamidine, 1,5-bis(4-amidinophenoxy)pentane] has an IC50 (Hep3B-luc; Hep 3B-Luc, 192 h) of 800 nM, an IC50 (HCCLM3) of 6900 nM and an IC50 (HEP3B2.7-1) of 280 nM. For the same compound, the IC50 (HUH1) was 1790 nM, the IC50 (HUH7) was 680 nM and the IC50 (Hep3B) was 160 nM. For the same compound, the IC50 (HepG2) was 290 nM, the IC50 (MHCC97H) was 4260 nM and the IC50 (SK-HEP-1; SK-HEP1, SK-HEP-1, first listing in Table 4) was 1450 nM. It also gave an IC50 (SK-HEP-1; SK-HEP1, SK-HEP-1, second listing in Table 4) of 720 nM.
